Data reported in the RepoRT retention time repository (doi:10.1038/s41596-020-0341-5).

Assay: RP, Waters ACQUITY UPLC BEH C8, 100 × 2.1 mm, 1.7 µm, 50 °C, 0.35 mL/min, estimated dead time 0.63 min; A: water + 0.1% formic acid; B: acetonitrile + 0.1% formic acid; gradient (min/%B) 0/5 1/5 24/100 28/100
Details: stereoisomer not certain

Row | SMILES | LC retention time
1 | CC(CCC(=O)NCC(=O)O)C1CCC2C3C(O)C(O)C4CC(O)CCC4(C)C3CCC12C (stereo not drawn) | 9.97 min
2 | O=C(O)C1CCCN1 (stereo not drawn) | 0.9 min
3 | CCCCCCCCCCCCCCCCCCC(=O)OCC(O)COP(=O)([O-])OCC[N+](C)(C)C (stereo not drawn) | 16.8 min
4 | Cc1cc2nc3c(=O)[nH]c(=O)nc-3n(CC(O)C(O)C(O)CO)c2cc1C (stereo not drawn) | 3.85 min
5 | CC(C)(CO)C(O)C(=O)NCCC(=O)O (stereo not drawn) | 1.92 min
6 | CC(CCC(=O)O)C1CCC2C3CCC4CC(O)CCC4(C)C3CC(O)C12C (stereo not drawn) | 13.3 min
7 | CCCCCC=CCC=CCC=CCCCCCCC(=O)OCC(O)COP(=O)([O-])OCC[N+](C)(C)C (stereo not drawn) | 15.9 min
8 | CCn1cc(C(=O)O)c(=O)c2ccc(C)nc21 | 7.7 min
9 | NC(Cc1ccccc1)C(=O)NC(Cc1ccccc1)C(=O)O (stereo not drawn) | 5.35 min
10 | CCCCCCC=CCCCCCCCCCC(=O)O | 18.9 min
11 | C1CCNC1 | 1.03 min
12 | CC(C)CCCCCOC(=O)c1ccccc1C(=O)OCCCCCC(C)C | 20.8 min
13 | CC(C)CC(NC(=O)CCC([NH3+])C(=O)[O-])C(=O)[O-] (stereo not drawn) | 3.05 min
14 | CCCCCC=CCC=CCC=CCCCCCCC(=O)OCC(COP(=O)([O-])OCC[N+](C)(C)C)OC(=O)CCCCCCCCCCCCC (stereo not drawn) | 20.2 min
15 | CCCCCCC(N)C(=O)O (stereo not drawn) | 0.8 min
16 | CCCCCCCCCCCCCCCC(O)C(N)CO (stereo not drawn) | 12.6 min
17 | Cn1cccc1-c1cccnc1 | 2.47 min
18 | CCCCCCCCC(=O)OC(CC(=O)O)C[N+](C)(C)C (stereo not drawn) | 8.62 min
19 | CCC=CCC=CCC=CCCCCCCCC(=O)O | 17.1 min
20 | NCCc1c[nH]c2ccc(O)cc12 | 1.02 min
21 | O=C(O)CCc1c[nH]c2ccccc12 | 7.33 min
22 | O=Cc1ccc(O)cc1 | 1.03 min
23 | Nc1nc2ccc(C(=O)c3ccccc3)cc2[nH]1 | 5.28 min
24 | CCCCCCCCC=CCCCCCCCC(=O)NCCO | 16.9 min
25 | CC(C)CCCC(C)C1CCC2C3C(=O)C=C4CC(O)CCC4(C)C3CCC12C (stereo not drawn) | 19.4 min

Row | SMILES | LC retention time
26 | CC(C)CC(NC(=O)C1CCCN1)C(=O)O (stereo not drawn) | 1.12 min
27 | CC(=O)CCC=C(C)CCC=C(C)CCC=C(C)C | 17.9 min
28 | CCCCCCCCCCCCCCC(=O)OC(CC(=O)O)C[N+](C)(C)C (stereo not drawn) | 13.8 min
29 | NC(Cc1c[nH]c2ccccc12)C(=O)O (stereo not drawn) | 2.47 min
30 | CCCCCC=CCC=CCC=CCCCCCCC(=O)O | 18.4 min
31 | CCCCCCC=CCCCCCCCCCC(=O)OC(CC(=O)O)C[N+](C)(C)C (stereo not drawn) | 15.2 min
32 | CCCCCCCCC=CCC=CCCC(=O)OC(CC(=O)O)C[N+](C)(C)C (stereo not drawn) | 13.2 min
33 | O=C(O)c1ccccc1O | 4.47 min
34 | CCCCCCC=CCCCCCCCCCCOCC(O)COP(=O)([O-])OCC[N+](C)(C)C (stereo not drawn) | 14.4 min
35 | CCCCCCC=CCCCC(=O)OC(CC(=O)O)C[N+](C)(C)C (stereo not drawn) | 11.4 min
36 | CCCCC=CC=CCCCCCC(=O)OC(CC(=O)O)C[N+](C)(C)C (stereo not drawn) | 11.9 min
37 | CCCCCC=CCCC(=O)OC(CC(=O)O)C[N+](C)(C)C (stereo not drawn) | 9.35 min
38 | CCCCC(=O)OC(CC(=O)O)C[N+](C)(C)C (stereo not drawn) | 3.7 min
39 | CCCCCCCCCCCCCCCCCCCCCCCCCC(=O)OC(CC(=O)O)C[N+](C)(C)C (stereo not drawn) | 19.8 min
40 | O=C(CO)CO | 1.6 min
41 | CC(C)NCC(O)COc1ccc(CC(N)=O)cc1 (stereo not drawn) | 2.03 min
42 | CCCCCCCCC=CCCCCCCCC(N)=O | 17.4 min
43 | Cn1c(=O)[nH]c2ncn(C)c2c1=O | 2.28 min
44 | Oc1ccc2[nH]ccc2c1 | 3.23 min
45 | CC12CCC(=O)C=C1CCC1C2C(O)CC2(C)C1CCC2(O)C(=O)CO (stereo not drawn) | 7.77 min
46 | CCCCCCCCCCCCCCCCCCOCC(O)COP(=O)([O-])OCC[N+](C)(C)C (stereo not drawn) | 15.3 min
47 | CCCCCC=CC=CCCCCCCCCC(=O)OC(CC(=O)O)C[N+](C)(C)C (stereo not drawn) | 14.4 min
48 | O=C(O)C(O)Cc1c[nH]c2ccccc12 (stereo not drawn) | 5.17 min
49 | CC(=O)Nc1ccc(OC2OC(C(=O)O)C(O)C(O)C2O)cc1 (stereo not drawn) | 1.22 min
50 | CCCCCCCCCCCCCCCCCCCC(=O)OC(CC(=O)O)C[N+](C)(C)C (stereo not drawn) | 17.1 min

Row | SMILES | LC retention time
51 | CCCC(=O)OC(CC(=O)O)C[N+](C)(C)C (stereo not drawn) | 2.28 min
52 | O=CCC(O)C(O)C(O)CO (stereo not drawn) | 0.783 min
53 | CCCCCC=CCC=CCCCCCCCC(=O)OCC(O)CO (stereo not drawn) | 17 min
54 | NC(Cc1ccc(O)cc1)C(=O)O (stereo not drawn) | 1.03 min
55 | CCCCCCCCOC(=O)c1ccccc1C(=O)OCCCCCCCC | 21.4 min
56 | CCCCCCCCCCCCCCCC(=O)O | 18.4 min
57 | CC(CCC(=O)NCC(=O)O)C1CCC2C3CCC4CC(O)CCC4(C)C3CC(O)C12C (stereo not drawn) | 11.8 min
58 | Nc1ccccc1C(=O)CC(N)C(=O)O (stereo not drawn) | 1.53 min
59 | CCCCCCCCCCCCCCCC(N)=O | 16.9 min
60 | CCC=CCC=CCC=CCC=CCC=CCC=CCCC(=O)O | 17.8 min
61 | O=C(O)C(O)c1ccc(O)c(O)c1 (stereo not drawn) | 13.9 min
62 | CCCCOC(=O)c1ccccc1C(=O)OCCCC | 15.7 min
63 | O=c1[nH]cnc2nc[nH]c12 | 1.02 min
64 | CCC=CCC=CCC=CCC=CCC=CCCCC(=O)O | 18.1 min
65 | CCCCCCCCC=CCCCCCCCCCCCC(N)=O | 18.8 min
66 | CCC=CCC=CCCC(=O)OC(CC(=O)O)C[N+](C)(C)C (stereo not drawn) | 8.58 min
67 | CCCCCCCCCCCCCCCCCCCCCC(=O)OC(CC(=O)O)C[N+](C)(C)C (stereo not drawn) | 18.1 min
68 | NC(=O)CCC(NC(=O)Cc1ccccc1)C(=O)O (stereo not drawn) | 3.67 min
69 | CCCCCCCCCCCCCCC=CCCCCCCCCCC(=O)OC(CC(=O)O)C[N+](C)(C)C (stereo not drawn) | 19.1 min
70 | CCCCCCCCC=CCCCCCCCCCC(=O)O | 20.1 min
71 | C[N+](C)(C)CC(O)CC(=O)[O-] (stereo not drawn) | 0.767 min
72 | CCCCC=CCCCCCCCC(=O)OC(CC(=O)O)C[N+](C)(C)C (stereo not drawn) | 12.7 min
73 | NC(Cc1ccccc1)C(=O)N1CCCC1C(=O)O (stereo not drawn) | 4.18 min
74 | CCCCCC=CCC=CCC=CCC=CCCCC(=O)O | 17.9 min
75 | CCCCCCCCCCCCCC(=O)OC(CC(=O)O)C[N+](C)(C)C (stereo not drawn) | 13.3 min

Row | SMILES | LC retention time
76 | NN1CCOC1=O | 1.6 min
77 | CC(C)CCCC(C)C1CCC2C3CCC4=CC(=O)CCC4(C)C3CCC12C (stereo not drawn) | 21.8 min
78 | Cn1cnc2c(ncn2C2OC(CO)C(O)C2O)c1=N (stereo not drawn) | 1 min
79 | CCCCCCCCC=CCCCCCCCCCC(=O)OC(CC(=O)O)C[N+](C)(C)C (stereo not drawn) | 16.3 min
80 | CC(C)C1=CC2=CCC3C(C)(C(=O)O)CCCC3(C)C2CC1 (stereo not drawn) | 17.1 min
81 | CCCCCCCCCCCCCCCC(=O)NCCO | 16.3 min
82 | CCCCCCCCCCCCCCCCCCCCCCCC(=O)OC(CC(=O)O)C[N+](C)(C)C (stereo not drawn) | 19 min
83 | CCCCC=CCCC(=O)OC(CC(=O)O)C[N+](C)(C)C (stereo not drawn) | 7.65 min
84 | CCCCCCCCC=CCCCCCC(=O)OC(CC(=O)O)C[N+](C)(C)C (stereo not drawn) | 13.9 min
85 | CCCCCCCCCCCCCC=CC(O)C(N)COP(=O)(O)O (stereo not drawn) | 13 min
86 | C=CC1=C(C)C(C=c2[nH]c(=Cc3[nH]c(C=C4NC(=O)C(C)=C4C=C)c(C)c3CCC(=O)O)c(CCC(=O)O)c2C)=NC1=O | 10.7 min
87 | CSCCC(N)C(=O)O (stereo not drawn) | 1.02 min
88 | O=C(O)C=Cc1ccccc1 | 1.6 min
89 | CCCC=CCCC(=O)OC(CC(=O)O)C[N+](C)(C)C (stereo not drawn) | 6.8 min
90 | NC(Cc1ccccc1)C(=O)O (stereo not drawn) | 1.63 min
91 | Cc1cnc2ccccc2c1 | 2.47 min
92 | O=C(O)C1CCCCN1 (stereo not drawn) | 0.817 min
93 | CCC=CCC=CCC=CCC=CCC=CCCCC(=O)OCC(COP(=O)([O-])OCC[N+](C)(C)C)OC(=O)CCCC=CCC=CCC=CCCCCCCCC (stereo not drawn) | 22 min
94 | CCCCCCCCCCCCCCCC(=O)OCC(O)COP(=O)([O-])OCC[N+](C)(C)C (stereo not drawn) | 14.3 min
95 | CC(=O)Nc1ccc(O)cc1 | 1.98 min
96 | CCCCCCC=CCCCCCCCC(=O)O | 17.4 min
97 | CCCCCCCCCCCCCCCCCC(N)=O | 18.4 min
98 | CCCCC=CCCCCCCC(=O)OC(CC(=O)O)C[N+](C)(C)C (stereo not drawn) | 11.8 min
